Tested on: human myeloma cell line MM.1S
Assay: SILAC acetylated-lysine peptide profiling, HDAC inhibitor vs DMSO (light/heavy ratio)
Assay type: cell-based
From the text: An embodiment of the invention comprises utilizing the SILAC method in order to quantitate changes in protein expression between two or more populations of cells. The SILAC method is a technique based on mass spectrometry that detects differences in protein abundance among samples using non-radioactive isotopic labeling. The SILAC method is known in the art, and described in detail in Ong et al., “Stable Isotope Labeling by Amino Acids in Cell Culture, SILAC, as a Simple and Accurate Approach to Expression Proteomics”, Molecular & Cellular Proteomics, vol. 1, pp. 376-386 (2002), which is incorporated herein by reference in its entirety.
Briefly, the SILAC method involves growing two populations of cells in cell culture. The first population of cells is grown in growth media containing normal amino acids (“normal media”). The second population of cells is grown in media lacking a standard essential amino acid (such as lysine), but is then supplemented with a non-radioactive, isotopically labeled form of that essential amino acid (such as lysine labeled with ^13C atoms, rather than normal ^12C atoms), which is called “heavy media”. When the two populations of cells are each growing in the medium, they incorporate the amino acids into all of their proteins. The growth of cells maintained in the heavy media is no different from that in normal media. All peptides containing the heavy amino acids are heavier than their normal counterparts. The cells from each of the two populations of cells are lysed. The lysates from each of the two cell populations are then combined. The combined cell lysates are then analyzed by mass spectrometry. Pairs of chemically identical peptides of different stable isotope composition can be differentiated in a mass spectrometer due to their difference in mass. The ratio of peak intensities in the mass spectrum for such peptide pairs reflects the abundance ratio for the two proteins.
This example describes SILAC studies that were performed to compare the effects of three different HDAC inhibitors (Compound A, Compound B, and tubastatin A) to a control on a human multiple myeloma cell line. The HDAC inhibitors were also compared amongst themselves to determine differences in their effects.
A human myeloma cell line MM.1S was grown using either ^12C (light) or ^13C (heavy) lysine containing culture medium. The “heavy” cells were treated with DMSO as the control, and the “light” cells were treated with a single HDAC inhibitor at 37° C. for 6 hours. The heavy and light cells were lysed, and the lysates were mixed in 1:1 ratio and digested with the protease trypsin. The acetylated lysine containing peptides (due to the action of the HDAC inhibitor) in the digested peptide pool were captured by a non-specific anti-acetylated lysine antibody cocktail (the antibodies identify both light and heavy acetylated peptides), and subjected to mass spectrometry analysis in order to identify thousands of individual peptides.
Thousands of peptides were identified in pairs (^12C and ^13C) due to their known mass differences. The amino acid sequence and quantitative ratio (Light/Heavy) of a given peptide in two differentially treated cell lysates were then determined and annotated with their possible protein (gene) sources.
As stated above, three HDAC inhibitors (Compound A, Compound B, and Tubastatin A) were used. Thus, the SILAC method was performed three times, with a different HDAC inhibitor compared to a control each time. Accordingly, there are three pairs of quantitative data in the table below, i.e., Compound A:DMSO, Compound B:DMSO, and Tubastatin A:DMSO. A cut-off of 1.30 fold of change (increase or decrease) was then used to determine “changed” or “+” in the table, and any peptides with a fold of change less than 1.3 fold were determined to be “unchanged” or “0” in the table. Those peptides that were not identified were marked as “NA” in the table. […]

O=C(CCCCCCNC(=O)c1cnc(N(c2ccccc2)c2ccccc2)nc1)NO [Compound A, 2-(diphenylamino)-N-(7-(hydroxyamino)-7-oxoheptyl)pyrimidine-5-carboxamide]
light to heavy ratio (L/H ratio), log 2 scale, acetylated peptide VGDK(ac)[…] (SEQ ID NO: 773) (10 kDa heat shock protein mitochondrial [70], gene HSPE1, drug:DMSO): 1.00 | light to heavy ratio (L/H ratio) of acetylated peptide AGEATVK(ac)FLK (SEQ ID NO: 580) (39S ribosomal protein L9 mitochondrial [165], gene MRPL9, inhibitor:DMSO): 0.43 log 2 | light to heavy ratio (L/H ratio) of acetylated peptide IQEVLK(ac)HAR (SEQ ID NO: 264) (39S ribosomal protein L20 mitochondrial [26], MRPL20, drug:DMSO): 0.43 log 2 | light to heavy ratio (L/H ratio) of acetylated peptide YIGK(ac)TMDYR (SEQ ID NO: 535) (39S ribosomal protein L24 mitochondrial [100], gene MRPL24, inhibitor:DMSO): −0.39 log 2 | light to heavy ratio (L/H ratio) of acetylated peptide FQK(ac)ELER (SEQ ID NO: 618) (39S ribosomal protein L44 mitochondrial [43], gene MRPL44, inhibitor:DMSO): 0.48 log 2 | light to heavy ratio (L/H ratio) of acetylated peptide FK(ac)LITEDVQGK (SEQ ID NO: 287) (40S ribosomal protein S3a [85], SNORD73A, RPS3A, drug:DMSO): 0.62 log 2 | light to heavy ratio (L/H ratio) of acetylated peptide KDVHMPK(ac)HPELADK (SEQ ID NO: 353) (40S ribosomal protein S10 [31], RPS10, drug:DMSO): 0.00 log 2 | light to heavy ratio (L/H ratio), log 2 scale, acetylated peptide K(ac)FGGPGAR (SEQ ID NO: 768) (40S ribosomal protein S16 [131], gene RPS16, drug:DMSO): 0.97 | light to heavy ratio (L/H ratio) of acetylated peptide NK(ac)[…] (SEQ ID NO: 559) (40S ribosomal protein S17 [49], gene RPS17, RPS17L, inhibitor:DMSO): 0.40 log 2 | light to heavy ratio (L/H ratio) of acetylated peptide ADGIVSK(ac)NF (SEQ ID NO: 599) (40S ribosomal protein S21 [81], gene RPS21, inhibitor:DMSO): 0.46 log 2 | light to heavy ratio (L/H ratio) of acetylated peptide GIVLEK(ac)VGVEAK (SEQ ID NO: 320) (40S ribosomal protein S23 [54], RPS23, drug:DMSO): 1.00 log 2 | light to heavy ratio (L/H ratio), log 2 scale, acetylated peptide K(ac)FGQGSR (SEQ ID NO: 809) (40S ribosomal protein S29 [13], gene RPS29, drug:DMSO): 1.00 | light to heavy ratio (L/H ratio), log 2 scale, acetylated peptide ATWK(ac)SNYFLK (SEQ ID NO: 760) (60S acidic ribosomal protein P0 [10], gene RPLP0, drug:DMSO): 0.91 | light to heavy ratio (L/H ratio), log 2 scale, acetylated peptide ALEK(ac)IDLK (SEQ ID NO: 813) (60S ribosomal protein L3 [362], gene SNORD43, RPL3, drug:DMSO): 1.00 | light to heavy ratio (L/H ratio) of acetylated peptide IPK(ac)HLTDAYFK (SEQ ID NO: 259) (60S ribosomal protein L6 [211], RPL6, drug:DMSO): 0.40 log 2 | light to heavy ratio (L/H ratio), log 2 scale, acetylated peptide AVDSQILPK(ac)IK (SEQ ID NO: 761) (60S ribosomal protein L6 [261], gene RPL6, drug:DMSO): 0.92 | light to heavy ratio (L/H ratio) of acetylated peptide HGYIK(ac)GIVK (SEQ ID NO: 556) (60S ribosomal protein L8 [42], gene RPL8, inhibitor:DMSO): 0.40 log 2 | light to heavy ratio (L/H ratio) of acetylated peptide IDK(ac)PILK (SEQ ID NO: 506) (60S ribosomal protein L8 [177], gene RPL8, inhibitor:DMSO): −0.65 log 2 | light to heavy ratio (L/H ratio) of acetylated peptide GPLDK(ac)WR (SEQ ID NO: 622) (60S ribosomal protein L10-like [208], gene RPL10L, inhibitor:DMSO): 0.48 log 2 | light to heavy ratio (L/H ratio), log 2 scale, acetylated peptide YMVK(ac)SCGK (SEQ ID NO: 811) (60S ribosomal protein L10 [78], gene SNORA70, RPL10, drug:DMSO): 1.00 | light to heavy ratio (L/H ratio), log 2 scale, acetylated peptide VDEVK(ac)STIK (SEQ ID NO: 805) (60S ribosomal protein L10a [152], gene RPL10A, drug:DMSO): 1.00 | light to heavy ratio (L/H ratio) of acetylated peptide VITEEEK(ac)NFK (SEQ ID NO: 522) (60S ribosomal protein L13 [174], gene RPL13, inhibitor:DMSO): −0.46 log 2 | light to heavy ratio (L/H ratio) of acetylated peptide LAAIVAK(ac)QVLLGR (SEQ ID NO: 505) (60S ribosomal protein L13a [25], gene SNORD32A, RPL13A, SNORD33, SNORD34, inhibitor:DMSO): −0.67 log 2 | light to heavy ratio (L/H ratio) of acetylated peptide K(ac)FAYLGR (SEQ ID NO: 614) (60S ribosomal protein L13a [134], gene SNORD32A, RPL13A, SNORD33, SNORD34, inhibitor:DMSO): 0.47 log 2 | light to heavy ratio (L/H ratio), log 2 scale, acetylated peptide LAHEVGWK(ac)[…] (SEQ ID NO: 812) (60S ribosomal protein L13a [148], gene SNORD32A, RPL13A, SNORD33, SNORD34, drug:DMSO): 1.00 | light to heavy ratio (L/H ratio) of acetylated peptide […](ac)PVHK (SEQ ID NO: 581) (60S ribosomal protein L15 [153], gene RPL15, inhibitor:DMSO): 0.43 log 2 | light to heavy ratio (L/H ratio) of acetylated peptide GHK(ac)FHHTIGGSR (SEQ ID NO: 519) (60S ribosomal protein L15 [179], gene RPL15, inhibitor:DMSO): −0.51 log 2 | light to heavy ratio (L/H ratio), log 2 scale, acetylated peptide SFVK(ac)[…] (SEQ ID NO: 770) (60S ribosomal protein L27 [73], gene RPL27, drug:DMSO): 0.99 | light to heavy ratio (L/H ratio), log 2 scale, acetylated peptide YSVDIPLDK(ac)TVVNK (SEQ ID NO: 807) (60S ribosomal protein L27 [93], gene RPL27, drug:DMSO): 1.00 | light to heavy ratio (L/H ratio), log 2 scale, acetylated peptide TVVNK(ac)DVFR (SEQ ID NO: 766) (60S ribosomal protein L27 [98], gene RPL27, drug:DMSO): 0.94 | light to heavy ratio (L/H ratio) of acetylated peptide NCSSFLIK(ac)R (SEQ ID NO: 558) (60S ribosomal protein L28 [19], gene RPL28, inhibitor:DMSO): 0.40 log 2 | light to heavy ratio (L/H ratio) of acetylated peptide IHGVGFK(ac)K (SEQ ID NO: 542) (60S ribosomal protein L31 [39], gene RPL31, inhibitor:DMSO): 0.39 log 2 | light to heavy ratio (L/H ratio), log 2 scale, acetylated peptide LNK(ac)AVWAK (SEQ ID NO: 808) (60S ribosomal protein L31 [70], gene RPL31, drug:DMSO): 1.00 | light to heavy ratio (L/H ratio) of acetylated peptide […](ac)ENLR (SEQ ID NO: 610) (60S ribosomal protein L35 [66], gene RPL35, inhibitor:DMSO): 0.47 log 2 | light to heavy ratio (L/H ratio) of acetylated peptide LWSK(ac)AIFAGYK (SEQ ID NO: 538) (60S ribosomal protein L35a [8], gene RPL35A, inhibitor:DMSO): 0.38 log 2

— patent US20140357512A1, “HISTONE DEACETYLASE (HDAC) BIOMARKERS IN MULTIPLE MYELOMA” (priority 2013, published 2014)
